A word on the IC50: it is the point on the concentration scale where inhibition reaches its midpoint.

The values that follow come from patent US8592629B2, “Sulfonamide derivatives as Nav 1.7 inhibitors” (Pfizer Limited, priority 2010, dated 2013).

For this test, the target named is T1, Nav1.7 (or SCN9A) channel (Homo sapiens, UniProt Q15858).
T1 construct: expressed in transfected cells
The test can be described thus: Nav1.7 (hSCN9A) block in HEK cells, PatchXpress 7000 automated electrophysiology, estimated IC50 (EIC50). In kind it is cell-based. As to conditions: PatchXpress assay; HEK cells stably transfected with hSCN9A, voltage-clamped at V1/2 of inactivation. As to the method: The ability of the compounds of formula (I) to block the Nav1.7 (or SCN9A) channel were measured using the assay described below.
Human Embryonic Kidney (HEK) cells were transfected with an hSCN9A construct using lipofectamine reagent (Invitrogen), using standard techniques. Cells stably expressing the hSCN9A constructs were identified by their resistance to G-418 (400 μg/ml). Clones were screened for expression using the whole-cell voltage-clamp technique.
HEK cells stably transfected with hSCN9A were maintained in DMEM medium supplemented with 10% heat-inactivated fetal bovine serum and 400 μg/ml G-418 in an incubator at 37° C. with a humidified atmosphere of 10% CO2. For HTS, cells were harvested from flasks by trypsinization and replated in an appropriate multi-well plate (typically 96 or 384 wells/plate) such that confluence would be achieved within 24 hours of plating. For electrophysiological studies, cells were removed from the culture flask by brief trypsinization and re-plated at low density onto glass cover slips. Cells were typically used for electrophysiological experiments within 24 to 72 hours after plating.
HEK cells stably transfected with hSCN9A were viewed under Hoffman contrast optics and placed in front of an array of flow pipes emitting either control or compound-containing extracellular solutions. All compounds were dissolved in dimethyl sulfoxide to make 10 mM stock solutions, which were then diluted into extracellular solution to attain the final concentrations desired. […] The voltage-dependence of inactivation was determined by applying a series of depolarizing prepulses (8 sec long in 10 mV increments) from a negative holding potential. The voltage was then immediately stepped to 0 mV to assess the magnitude of the sodium current. Currents elicited at 0 mV were plotted as a function of prepulse potential to allow estimation of the voltage at which 50% of the channels were inactivated (midpoint of inactivation or V1/2). Compounds were tested for their ability to inhibit hSCN9A sodium channels by activating the channel with a 20 msec voltage step to 0 mV following an 8 second conditioning prepulse to the empirically determined V1/2. Compound effect (% inhibition) was determined by difference in current amplitude before and after application of test compounds. For ease of comparison, “estimated IC-50” (EIC50) values were calculated from single point electrophysiology data by the following equation, (tested concentration, uM) X (100-% inhibition/% inhibition). Inhibition values <20% and >80% were excluded from the calculation.
Electrophysiological assays were conducted with PatchXpress 7000 hardware and associated software (Molecular Devices Corp). All assay buffers and solutions were identical to those used in conventional whole-cell voltage clamp experiments described above. hSCN9A cells were grown as above to 50%-80% confluency and harvested by trypsinization. Trypsinized cells were washed and resuspended in extracellular buffer at a concentration of 1×10^6 cells/ml. The onboard liquid handling facility of the PatchXpress was used for dispensing cells and application of test compounds. Determination of the voltage midpoint of inactivation was as described for conventional whole-cell recordings. Cells were then voltage-clamped to the empirically determined V1/2 and current was activated by a 20 msec voltage step to 0 mV.
Compounds of the Examples were tested in the assays described above and found to have the Nav1.7 EIC50 (μM) values specified in the table below. All data are derived from the PatchXpress assay unless explicitly stated otherwise.

T1 sequence (Q15858 whole entry): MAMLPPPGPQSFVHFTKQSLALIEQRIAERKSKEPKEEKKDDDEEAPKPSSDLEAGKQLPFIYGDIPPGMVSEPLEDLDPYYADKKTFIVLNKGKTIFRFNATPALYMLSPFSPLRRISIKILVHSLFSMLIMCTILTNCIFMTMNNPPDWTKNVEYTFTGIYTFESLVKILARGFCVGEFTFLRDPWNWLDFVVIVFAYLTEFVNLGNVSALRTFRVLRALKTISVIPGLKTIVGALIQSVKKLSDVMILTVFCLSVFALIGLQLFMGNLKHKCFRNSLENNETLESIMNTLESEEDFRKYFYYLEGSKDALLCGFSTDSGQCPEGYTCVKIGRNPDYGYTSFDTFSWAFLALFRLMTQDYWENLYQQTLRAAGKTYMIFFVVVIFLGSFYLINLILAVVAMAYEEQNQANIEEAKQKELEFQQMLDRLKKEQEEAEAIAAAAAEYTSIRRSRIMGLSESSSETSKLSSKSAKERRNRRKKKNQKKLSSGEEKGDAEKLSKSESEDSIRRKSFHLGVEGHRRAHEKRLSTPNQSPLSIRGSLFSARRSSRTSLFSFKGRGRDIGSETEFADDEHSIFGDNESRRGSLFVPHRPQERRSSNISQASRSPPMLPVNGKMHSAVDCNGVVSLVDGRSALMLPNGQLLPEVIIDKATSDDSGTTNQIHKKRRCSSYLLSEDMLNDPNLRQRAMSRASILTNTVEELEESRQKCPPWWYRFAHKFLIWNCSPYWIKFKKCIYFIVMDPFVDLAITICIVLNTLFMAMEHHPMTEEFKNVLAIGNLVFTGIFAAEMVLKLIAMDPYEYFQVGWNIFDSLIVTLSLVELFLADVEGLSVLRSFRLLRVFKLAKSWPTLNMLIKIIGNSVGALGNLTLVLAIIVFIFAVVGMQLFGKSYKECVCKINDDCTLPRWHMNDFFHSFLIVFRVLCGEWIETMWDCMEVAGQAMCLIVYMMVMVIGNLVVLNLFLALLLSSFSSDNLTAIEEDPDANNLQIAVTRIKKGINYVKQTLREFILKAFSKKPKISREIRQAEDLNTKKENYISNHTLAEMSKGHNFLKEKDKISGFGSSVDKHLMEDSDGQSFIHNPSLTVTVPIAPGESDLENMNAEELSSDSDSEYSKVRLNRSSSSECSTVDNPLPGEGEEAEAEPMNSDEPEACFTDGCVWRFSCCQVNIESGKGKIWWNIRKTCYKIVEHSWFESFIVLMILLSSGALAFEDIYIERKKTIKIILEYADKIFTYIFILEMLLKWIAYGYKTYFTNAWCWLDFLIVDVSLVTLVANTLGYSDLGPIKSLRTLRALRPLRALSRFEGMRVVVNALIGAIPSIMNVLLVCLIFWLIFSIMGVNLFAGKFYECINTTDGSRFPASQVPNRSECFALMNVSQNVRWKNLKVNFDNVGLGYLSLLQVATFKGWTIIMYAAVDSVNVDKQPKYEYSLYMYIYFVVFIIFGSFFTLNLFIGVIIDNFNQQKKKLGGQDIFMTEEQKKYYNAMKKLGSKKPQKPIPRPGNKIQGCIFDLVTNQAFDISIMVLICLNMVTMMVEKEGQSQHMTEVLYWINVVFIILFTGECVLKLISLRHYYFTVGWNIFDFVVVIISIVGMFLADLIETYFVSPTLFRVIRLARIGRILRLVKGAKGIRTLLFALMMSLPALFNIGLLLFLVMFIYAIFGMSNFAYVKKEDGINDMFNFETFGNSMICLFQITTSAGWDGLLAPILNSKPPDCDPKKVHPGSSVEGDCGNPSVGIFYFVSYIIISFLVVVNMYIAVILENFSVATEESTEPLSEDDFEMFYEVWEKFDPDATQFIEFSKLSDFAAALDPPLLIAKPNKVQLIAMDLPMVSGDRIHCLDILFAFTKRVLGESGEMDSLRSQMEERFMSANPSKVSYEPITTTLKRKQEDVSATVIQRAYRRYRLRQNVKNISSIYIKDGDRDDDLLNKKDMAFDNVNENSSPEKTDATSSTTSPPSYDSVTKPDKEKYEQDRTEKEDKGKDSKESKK

`CC(C)(C)Oc1ncc(Oc2cc(F)c(C(=O)NS(C)(=O)=O)cc2F)cc1Cl` [Example 34, 4-[(6-tert-butoxy-5-chloropyridin-3-yl)oxy]-2,5-difluoro-N-(methylsulfonyl)benzamide]: the IC50 is 33 nM.

Consider `CS(=O)(=O)NC(=O)c1cc(F)c(Oc2cnc(OCC3CC3)c(Cl)c2)cc1F` [Example 35, 4-{[5-chloro-6-(cyclopropylmethoxy)pyridin-3-yl]oxy}-2,5-difluoro-N-(methylsulfonyl)benzamide], for which the IC50 was 41 nM.

Regarding `CC(C)Oc1ncc(Oc2ccc(C(=O)NS(C)(=O)=O)c(F)c2)cc1Cl` [Example 36, 4-[(5-chloro-6-isopropoxypyridin-3-yl)oxy]-2-fluoro-N-(methylsulfonyl)benzamide], the IC50 was 310 nM.

For `CS(=O)(=O)NC(=O)c1cc(Cl)c(Oc2cnc(OC3CCOCC3)c(Cl)c2)cc1F` [Example 37, 5-chloro-4-{[5-chloro-6-(tetrahydro-2H-pyran-4-yloxy)pyridin-3-yl]oxy}-2-fluoro-N-(methylsulfonyl)benzamide], the IC50 was 140 nM.

`CC(C)COc1ncc(Oc2cc(F)c(C(=O)NS(C)(=O)=O)cc2Cl)cc1Cl` [Example 38, 5-chloro-4-[(5-chloro-6-isobutoxypyridin-3-yl)oxy]-2-fluoro-N-(methylsulfonyl)benzamide]: the IC50 was 7.5 nM.

With `CC(C)Oc1ncc(Oc2cc(F)c(C(=O)NS(C)(=O)=O)cc2Cl)cc1Cl` [Example 39, 5-chloro-4-[(5-chloro-6-isopropoxypyridin-3-yl)oxy]-2-fluoro-N-(methylsulfonyl)benzamide], the IC50 was 25 nM.

Regarding `[2H]C([2H])([2H])C([2H])(Oc1ncc(Oc2cc(F)c(C(=O)NS(C)(=O)=O)cc2F)cc1Cl)C([2H])([2H])[2H]` [Example 40, -({5-chloro-6-[d7-propan-2-yloxy]pyridin-3-yl}oxy)-2,5-difluoro-N-(methylsulfonyl)benzamide], the IC50 is 130 nM.

For the molecule `[2H]C(C)(C)Oc1ncc(Oc2cc(F)c(C(=O)NS(C)(=O)=O)cc2F)cc1Cl` [Example 41, 4-({5-chloro-6-[2-d1-propan-2-yloxy]pyridin-3-yl}oxy)-2,5-difluoro-N-(methylsulfonyl)benzamide], the IC50 is 190 nM.

In the case of `CC(Oc1ncc(Oc2cc(F)c(C(=O)NS(C)(=O)=O)cc2Cl)cc1Cl)C(F)(F)F` (centres unmarked) [Example 43, 5-chloro-4-{[5-chloro-6-(2,2,2-trifluoro-1-methylethoxy)pyridin-3-yl]oxy}-2-fluoro-N-(methylsulfonyl)benzamide], the concentration for half-maximal inhibition (IC50) was 11 nM.

Take `CC(F)(F)c1ncc(Oc2cc(F)c(C(=O)NS(C)(=O)=O)cc2Cl)cc1Cl` [Example 44, 5-chloro-4-{[5-chloro-6-(1,1-difluoroethyl)pyridin-3-yl]oxy}-2-fluoro-N-(methylsulfonyl)benzamide]: the IC50 was 560 nM.

Regarding `CS(=O)(=O)NC(=O)c1cc(F)c(Oc2cnc(OCC(F)(F)C(F)F)c(Cl)c2)cc1F` [Example 45, 4-{[5-chloro-6-(2,2,3,3-tetrafluoropropoxy)pyridin-3-yl]oxy}-2,5-difluoro-N-(methylsulfonyl)benzamide], the IC50 is 110 nM.

Consider `CC(C)Oc1ccc(Oc2cc(F)c(C(=O)NS(C)(=O)=O)cc2F)cn1` [Example 47, 2,5-difluoro-4-[(6-isopropoxypyridin-3-yl)oxy]-N-(methylsulfonyl)benzamide], for which the IC50 is 680 nM.

In the case of `CC(C)(O)c1ncc(Oc2cc(F)c(C(=O)NS(C)(=O)=O)cc2Cl)cc1Cl` [Example 48, 5-chloro-4-{[5-chloro-6-(1-hydroxy-1-methylethyl)pyridin-3-yl]oxy}-2-fluoro-N-(methylsulfonyl)benzamide], the IC50 was 3500 nM.

On to `CC(C)Cc1ncc(Oc2cc(F)c(C(=O)NS(C)(=O)=O)cc2F)cc1Cl` [Example 49, 4-[(5-chloro-6-isobutylpyridin-3-yl)oxy]-2,5-difluoro-N-(methylsulfonyl)benzamide], for which the half-inhibitory concentration (IC50) was 760 nM.

Take `CS(=O)(=O)NC(=O)c1cc(F)c(Oc2cnc(C3CC3)c(Cl)c2)cc1F` [Example 50, 4-[(5-chloro-6-cyclopropylpyridin-3-yl)oxy]-2,5-difluoro-N-(methylsulfonyl)benzamide]: the IC50 is 160 nM.

For the molecule `CC(C)(C)c1ncc(Oc2cc(F)c(C(=O)NS(C)(=O)=O)cc2F)cc1Cl` [Example 51, 4-[(6-tert-butyl-5-chloropyridin-3-yl)oxy]-2,5-difluoro-N-(methylsulfonyl)benzamide], the IC50 is 270 nM.

With `CS(=O)(=O)NC(=O)c1cc(Cl)c(Oc2cnc(OCC(F)F)c(Cl)c2)cc1F` [Example 52, 5-chloro-4-{[5-chloro-6-(2,2-difluoroethoxy)pyridin-3-yl]oxy}-2-fluoro-N-(methylsulfonyl)benzamide], the IC50 was 160 nM.

`CS(=O)(=O)NC(=O)c1cc(Cl)c(Oc2cnc(OC(CF)CF)c(Cl)c2)cc1F` [Example 53, 5-chloro-4-({5-chloro-6-[2-fluoro-1-(fluoromethyl)ethoxy]pyridin-3-yl}oxy)-2-fluoro-N-(methylsulfonyl)benzamide]: the IC50 is 260 nM.

`CS(=O)(=O)NC(=O)c1cc(Cl)c(Oc2cnc(OC(F)F)c(Cl)c2)cc1F` [Example 54, 5-chloro-4-{[5-chloro-6-(difluoromethoxy)pyridin-3-yl]oxy}-2-fluoro-N-(methylsulfonyl)benzamide]: the IC50 was 180 nM.

As for `CS(=O)(=O)NC(=O)c1cc(Cl)c(Oc2cnc(OC3CC3)c(Cl)c2)cc1F` [Example 55, 5-chloro-4-{[5-chloro-6-(cyclopropyloxy)pyridin-3-yl]oxy}-2-fluoro-N-(methylsulfonyl)benzamide], the IC50 was 48 nM.

With `CS(=O)(=O)NC(=O)c1cc(Cl)c(Oc2cnc(OCC(F)(F)C(F)(F)F)c(Cl)c2)cc1F` [Example 56, 5-chloro-4-{[5-chloro-6-(2,2,3,3,3-pentafluoropropoxy)pyridin-3-yl]oxy}-2-fluoro-N-(methylsulfonyl)benzamide], the IC50 is 13 nM.

On to `CC(C)(F)COc1ncc(Oc2cc(F)c(C(=O)NS(C)(=O)=O)cc2Cl)cc1Cl` [Example 57, 5-chloro-4-{[5-chloro-6-(2-fluoro-2-methylpropoxy)pyridin-3-yl]oxy}-2-fluoro-N-(methylsulfonyl)benzamide], for which the IC50 was 94 nM.

With `CS(=O)(=O)NC(=O)c1cc(Cl)c(Oc2cnc(OCC(F)(F)F)c(Cl)c2)cc1F` [Example 58, 5-chloro-4-{[5-chloro-6-(2,2,2-trifluoroethoxy)pyridin-3-yl]oxy}-2-fluoro-N-(methylsulfonyl)benzamide], the IC50 is 23 nM.

For `CC(C)C(F)(F)c1ncc(Oc2cc(F)c(C(=O)NS(C)(=O)=O)cc2Cl)cc1Cl` [Example 60, 5-chloro-4-{[5-chloro-6-(1,1-difluoro-2-methylpropyl)pyridin-3-yl]oxy}-2-fluoro-N-(methylsulfonyl)benzamide], the IC50 was 140 nM.

Regarding `CC(C)Oc1ncc(Oc2cc(F)c(C(=O)NS(C)(=O)=O)cc2Cl)cn1` [Example 61, 5-chloro-2-fluoro-4-[(2-isopropoxypyrimidin-5-yl)oxy]-N-(methylsulfonyl)benzamide], the IC50 was 5500 nM.

With `CS(=O)(=O)NC(=O)c1cc(F)c(Oc2cnc(OCCC(F)(F)F)c(Cl)c2)cc1F` [Example 62, 4-{[5-chloro-6-(3,3,3-trifluoropropoxy)pyridin-3-yl]oxy}-2,5-difluoro-N-(methylsulfonyl)benzamide], the IC50 is 240 nM.
